Holding throughout (assay): NCI tumour cell line growth inhibition, 48 h
Test [1] has as its system KM12.
Test [2] deals with SK-MEL-28.
Test [3] relates to TK-10.
Test [4] has as its system SK-MEL-5.
Test [5] deals with HCT-15.
Test [6] has as its system BT-549.
The test system of test [7] is OVCAR-5.
For test [8], the system named is DU-145.
Test [9] has as its system A549.
Test [10] has as its system Malme-3M.
The subject of test [11] is MDA-MB-231.
The test system of test [12] is U-251.
Test [13] deals with SF-268.
Test [14] has as its system IGROV-1.
Test [15] deals with A498.
Test [16] deals with SN12C.
In test [17] the test system is HL-60.
Test [18] concerns SR.
The test system of test [19] is MDA-MB-435.
Test [20] relates to NCI-H226.

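The compound was tested at five concentrations on cells cultured in 96-well plates, with a 48-hour exposure period. The concentration for 50% growth inhibition is given as GI50.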 Activity calls are given as the source filed them. Rule as the data show it: active = GI50 up to about 1.1 µM and inactive = higher. A value given as a limit tells only on which side of the number the result lay.

For `COC(=O)C1=C(C)NC(C)=C(C(=O)OC)C1c1ccccc1NO`, the GI50 in test [1] was > 100 µM (inactive); in [2], > 100 µM (inactive); in [3], > 100 µM (inactive); in [4] it was > 100 µM (inactive); in [5] it was over 100 µM; in test [6], > 100 µM (inactive). Further, the GI50 in test [7] is > 100 µM (inactive); in [8] it was > 100 µM (inactive); in [9] it was > 100 µM (inactive); in test [10], > 100 µM (inactive); in test [11], 65.6 µM (inactive); in test [12] it was > 100 µM (inactive). The GI50 in test [13] is > 100 µM (inactive); in test [14], > 100 µM (inactive); in [15], > 100 µM (inactive); in [16], > 100 µM (inactive); in [17], > 100 µM (inactive); in [18] it was 28.4 µM (inactive). Further, the GI50 is 47.2 µM (inactive) in test [19] and > 100 µM (inactive) in test [20].

With `Cc1cc(S(=O)(=O)NC2=Nc3cccc(F)c3CN2)c(S)cc1Cl`, the GI50 was 45.7 µM (inactive) in test [1]; 95.9 µM (inactive) in test [2]; > 100 µM (inactive) in test [3]; 22 µM (inactive) in test [4]; 69.5 µM in test [5]; > 100 µM (inactive) in test [6]. The GI50 in test [7] is > 100 µM (inactive); in test [8] it was 74.5 µM (inactive); in test [9], 35.2 µM (inactive); in test [10] it was > 100 µM (inactive); in [11] it was > 100 µM (inactive); in [12] it was 44.5 µM (inactive). The GI50 in test [13] is 76.9 µM (inactive); in [14] it was 36.2 µM (inactive); in [15], > 100 µM (inactive); in test [16], > 100 µM (inactive); in [17], 96.8 µM (inactive); in test [18] it was 48.5 µM (inactive). For the same compound, the GI50 in test [19] is 68.9 µM (inactive); in test [20] it was > 100 µM (inactive).

With `CC(C)C[C@H](NC(=O)[C@H](CCc1ccccc1)NC(=O)c1ccc2ccccc2n1)B(O)O`, the GI50 in test [1] is 0.0644 µM (active); in test [2], < 0.01 µM (active); in test [3], < 0.01 µM (active); in [4], < 0.0136 µM (active); in test [5] it was 0.0883 µM; in test [6] it was < 0.01 µM (active). Further, the GI50 in test [7] was < 0.0268 µM (active); in test [8], 0.0752 µM (active); in [9], 0.233 µM (active); in test [10], < 0.01 µM (active); in test [11], 0.134 µM (active); in [12], 0.178 µM (active). Moreover, the GI50 in test [13] was 0.0571 µM (active); in test [14], 0.0705 µM (active); in test [15], 0.0471 µM (active); in test [16], < 0.01 µM (active); in [17] it was < 0.01 µM (active); in test [18], < 0.0158 µM (active). Further, the GI50 in [19] and in [20] was < 0.01 µM (active) each time.

With `Cc1cc(S(=O)(=O)n2ccnc2Oc2cccc(Cl)c2)c(SSc2cc(Cl)c(C)cc2S(=O)(=O)n2ccnc2Oc2cccc(Cl)c2)cc1Cl`, the GI50 in test [1] is 5.66 µM (inactive); in [2], 14.1 µM (inactive); in [3] it was 29 µM (inactive); in test [4], 3.42 µM (inactive); in test [5], 8.67 µM; in test [6], 4.3 µM (inactive). For the same compound, the GI50 in test [7] was 10.4 µM (inactive); in test [8], 5.32 µM (inactive); in test [9] it was 7.06 µM (inactive); in test [10], 5.74 µM (inactive); in test [11] it was 12.4 µM (inactive); in test [12] it was 3.18 µM (inactive). Moreover, the GI50 was 7.43 µM (inactive) in test [13]; 8.13 µM (inactive) in test [14]; 12.2 µM (inactive) in test [15]; 8.87 µM (inactive) in [16]; 4.18 µM (inactive) in test [17]; 9.06 µM (inactive) in [18]. The GI50 in test [19] is 5.65 µM (inactive); in test [20] it was 6.37 µM (inactive).

Consider `CC(C)(C)c1ccc(OCCOc2ccc(C(C)(C)C)cc2N)c(N)c1`, for which the GI50 in test [1] is > 100 µM (inactive); in [2] it was > 100 µM (inactive); in [3] it was 69.3 µM (inactive); in test [4], > 100 µM (inactive); in test [5], 37.5 µM; in test [6], 91 µM (inactive). The GI50 in [7] is > 100 µM (inactive); in [8], > 100 µM (inactive); in test [9], 26.2 µM (inactive); in test [10], 22.2 µM (inactive); in [11], 17.5 µM (inactive); in test [12] it was 17.1 µM (inactive). In addition, the GI50 in [13] is > 100 µM (inactive); in test [14] it was 38.5 µM (inactive); in test [15], 18.3 µM (inactive); in test [16] it was > 100 µM (inactive); in test [17], > 100 µM (inactive); in [18], > 100 µM (inactive). Besides, the GI50 in test [19] and in [20] was > 100 µM (inactive) in each case.

Turning to `CCOC(=O)c1ccc(C(=O)C(C(C)=O)C(=O)OC(C)(C)C)n1C` (stereo not given), the GI50 in test [1] was > 100 µM (inactive); in [2], > 100 µM (inactive); in [3], > 100 µM (inactive); in test [4] it was > 100 µM (inactive); in test [5], over 100 µM; in test [6], > 100 µM (inactive). Besides, the GI50 in test [7], in test [8], in test [9], in test [10], in test [11] and in test [12] was > 100 µM (inactive) throughout. Further, the GI50 in [13] was > 100 µM (inactive); in test [14], > 100 µM (inactive); in test [15], > 100 µM (inactive); in test [16], > 100 µM (inactive); in test [17], 67.9 µM (inactive); in test [18], 57.4 µM (inactive). The GI50 in test [19] and in test [20] was > 100 µM (inactive) in each case.

As for `N#Cc1ccc(OC(=O)c2ccc(NC(=N)N)cc2)cc1.c1ccncc1`, the GI50 in test [1] is 57 µM (inactive); in test [2], > 100 µM (inactive); in [3] it was > 100 µM (inactive); in test [4], > 100 µM (inactive); in test [5], 46.9 µM; in test [6], 88.7 µM (inactive). Moreover, the GI50 in test [7] is > 100 µM (inactive); in test [8] it was > 100 µM (inactive); in [9], > 100 µM (inactive); in test [10] it was > 100 µM (inactive); in test [11], > 100 µM (inactive); in test [12] it was 61.2 µM (inactive). Further, the GI50 in test [13] is 51.1 µM (inactive); in [14], > 100 µM (inactive); in [15] it was > 100 µM (inactive); in test [16], 63.2 µM (inactive); in test [17], 60.1 µM (inactive); in [18], 51.9 µM (inactive). The values for the GI50 in test [19] and in test [20] were 67.8 µM (inactive) and 50 µM (inactive), respectively.

In the case of `CCN(CC)C1Oc2cc3c(cc2C(c2cccc(OC)c2O)C1C)OCO3` (stereo not given), the GI50 was 4.1 µM (inactive) in [1]; 5.96 µM (inactive) in test [2]; 16.4 µM (inactive) in test [3]; 2.97 µM (inactive) in [4]; 4.79 µM in test [5]; 7.18 µM (inactive) in test [6]. In addition, the GI50 in [7] was 13.8 µM (inactive); in [8], 5.35 µM (inactive); in [9], 5.02 µM (inactive); in test [10] it was 3.94 µM (inactive); in test [11] it was 10.5 µM (inactive); in test [12], 3.69 µM (inactive). Moreover, the GI50 in test [13] is 6.62 µM (inactive); in test [14], 8.04 µM (inactive); in [15], 2.36 µM (inactive); in test [16], 4.6 µM (inactive); in test [17], 2.99 µM (inactive); in test [18] it was 4.75 µM (inactive). For the same compound, the figures for the GI50 in [19] and in test [20] were 1.74 µM (inactive) and 3.44 µM (inactive), respectively.

On to `CCCCc1cc2c(C)cc(=O)oc2c(O)c1O`, for which the GI50 in test [1] is 25.1 µM (inactive); in [2] it was 37.3 µM (inactive); in test [3], 85.9 µM (inactive); in test [4] it was 20.7 µM (inactive); in test [5] it was 26.9 µM; in [6] it was 14.6 µM (inactive). Besides, the GI50 in test [7] was 69.7 µM (inactive); in test [8] it was 32.2 µM (inactive); in [9], 33.2 µM (inactive); in test [10], 27.8 µM (inactive); in [11], 13.6 µM (inactive); in [12], 23.7 µM (inactive). Besides, the GI50 in test [13] was 38.8 µM (inactive); in test [14], 24.6 µM (inactive); in test [15], 26.5 µM (inactive); in [16], 32.4 µM (inactive); in [17], 18.1 µM (inactive); in test [18], 18 µM (inactive). In addition, the GI50 in test [19] was 30.6 µM (inactive); in [20], 23.9 µM (inactive).

On to `CC(=O)Nc1ccc(Nc2nc(=O)[nH]c(=O)[nH]2)cc1`, for which the GI50 in test [1] is > 100 µM (inactive); in [2], > 100 µM (inactive); in test [3] it was > 100 µM (inactive); in [4], > 100 µM (inactive); in test [5], over 100 µM; in test [6] it was > 100 µM (inactive). Moreover, the GI50 in test [7], in test [8], in test [9], in test [10], in [11] and in test [12] was > 100 µM (inactive) throughout. For the same compound, the GI50 in [13], in [14], in test [15], in [16], in [17] and in test [18] was > 100 µM (inactive) throughout. Further, the GI50 in test [19] and in test [20] was > 100 µM (inactive) in each case.

The record behind these values is ChEMBL document CHEMBL1201862, “PubChem BioAssay data set” (2004).
